Source: patent US9643984B2, “Method for the preparation of [1,2,4]-triazolo[4,3-a]pyridines” (AMGEN, INC., priority 2013, dated 2017)

Assay: solid-form stability of Compound A (humidity, temperature, air)
Type: physicochemical

| relative humidity at which the monohydrate crystalline solid reversibly dehydrates (monohydrate crystalline solid isolated in Example 8) | temperature up to which the monohydrate form is stable and robust (monohydrate form, solid) | Compound | stability to air, moisture and elevated temperature (isolated as salt form (e.g., HCl salt) or monohydrate form) |
| --- | --- | --- | --- |
| < 11 % RH |  | COCCOc1cnc2ccn([C@H](C)c3nnc4c(F)cc(-c5cnn(C)c5)cn34)c(=O)c2c1 [Compound A, (R)-6-(1-(8-fluoro-6-(1-methyl-1H-pyrazol-4-yl)-[1,2,4]triazolo[4,3-a]pyridin-3-yl)ethyl)-3-(2-methoxyethoxy)-1,6-naphthyridin-5(6H)-one] | stable to air, moisture, and elevated temperature |
|  | up to 50 °C | COCCOc1cnc2ccn([C@H](C)c3nnc4c(F)cc(-c5cnn(C)c5)cn34)c(=O)c2c1 [monohydrate form of Compound A] |  |
